Source: patent US9505824B2, “Antigen peptide derived from the sequence of epidermal growth factor receptor having T790M point mutation” (Kanagawa Prefectural Hospital Organization, priority 2012, dated 2016)

Assays:
HLA-A2 molecule [1] = test: HLA class I stabilization assay with TAP2-deficient RMA-S/A2 cells; type: binding; settings: peptide 10 μg/ml
[2] = system: PBMCs from HLA-A2+ healthy donors; test: Immunogenicity in PBMCs of HLA-A2+ healthy donors, IFN-γ ELISPOT against peptide-pulsed T2 cells; type: cell-based, human; settings: PBMCs from 6 HLA-A2+ healthy donors, repeated stimulation with peptide 10 μg/ml
From the text: FIG. 1. Immunogenicity of T790M-5 and T790M-7 peptides in peripheral blood mononuclear cells (PBMCs) from normal donors. Immunogenicity of T790M-5 and T790M-7 peptides was examined with PBMCs from 6 different HLA-A2^+ healthy donors.

HLA-A2 molecule [3] = molecular target: T1, HLA-A2 molecule (Homo sapiens, UniProt P04439, D140Y/D185E/D98H/E176V/E277Q/G131W/G231S/I119V/I121R/I166T/I218V/L300P/L318F/N151K/N90K/P208A/P217A/Q86G/Q94H/R138H/R169H/T345S); test: HLA class I stabilization assay with TAP2-deficient T2 cells; type: binding; settings: T2 cells expressing HLA-A2
T1 construct: TAP2-deficient T2 cells expressing HLA-A2; host or cells: T2 cells (TAP2-deficient, HLA-A2+)
Procedure: FIG. 6. HLA-A2-binding capability of EGFR-T790M-derived peptides. The binding of selected peptides to an HLA-A2 molecule was evaluated by HLA class I stabilization assay with TAP2-deficient T2 cells expressing HLA-A2.
The binding of predicted peptides to an HLA-A2 molecule was evaluated by HLA class I stabilization assay with TAP2-deficient T2 cells (HLA-A2+) (RIKEN, Saitama, Japan). After overnight culture in RPMI 1640 medium at 26° C., T2 cells were cultured for 3 hours at 26° C. in the presence of each synthetic peptide. The cells were cultured for 2.5 hours at 37° C., and then stained with anti-HLA-A2 antibody (BB7.2) (MBL, Nagoya, Japan), followed by analysis with flow cytometry. The binding capability of each peptide to the HLA-A2 molecule was evaluated by comparing the mean fluorescence intensity (MFI) of HLA-A2 expression of the peptide with those of the positive and the negative controls. The HLA-A2-restricted HIV peptide and CMV peptide were used as positive controls, and H-2K^b-restricted OVA peptide was used as a negative control.

Row | Sequence | HLA binding capability (%) (MFI increase of HLA-A2 expression) (HLA-A2 molecule [1]) | healthy donors in whom T cell lines secreting IFN-γ in response to the peptide were established [2] | binding to HLA-A2 (in words) (HLA-A2 molecule [3])
1 | IMQLMPFGCL [Peptide T790M-4] | 0% | – | –
2 | IMQLMPFGCLL [Peptide T790M-8] | 69.3% | none of the 6 healthy donors | –
3 | IMQLMPFGL [Peptide T790M-E] | – | – | higher binding
4 | IMQLMPFGV [Peptide T790M-D] | – | – | higher binding
5 | LIMQLMPFGC [Peptide T790M-3] | 0% | – | confirmed to bind to HLA-A2
6 | LTSTVQLIMQL [Peptide T790M-6] | 0% | – | –
7 | QLIMQLMPFG [Peptide T790M-2] | 0% | – | –
8 | VQLIMQLMPF [Peptide T790M-1] | 0% | – | –
